Assay results taken from patent EP2138545B1, “USE OF PORPHYRAZINE DERIVATIVE AS SEMICONDUCTOR” (Hiroshima University, priority 2007, dated 2008).
Converted amounts (≈) assume the structure as drawn. Read-outs that look alike come from different tables or passages of the source.

Assay: Measurement of solubility in chloroform and in dichloromethane (solvent added by 0.1 mL until the whole amount dissolved)
Format: physicochemical
Conditions: for solubility: organic solvent or mixture, thermodynamic from solid
Method: Respective compounds indicated by "6" and "7" were subjected to measurements of solubility in chloroform and in dichloromethane. In the measurements, approximately 3mg of a compound was prepared in advance by a precise weighing. Then, a solvent was added by 0.1mL to the compound and thereafter stirred or subjected to ultrasonic agitation. The solubility (mg/mL) was determined from an amount of the solvent used in dissolving a whole amount of the compound.

Compound	solubility in chloroform (solvent chloroform) [mg/mL]	solubility in dichloromethane (solvent dichloromethane) [mg/mL]	solubility (solvent chloroform, read-out: solubility in chloroform) [mg/mL]	solubility (solvent dichloromethane, read-out: solubility in dichloromethane) [mg/mL]
CCCCCCc1cc2c(s1)-c1nc-2nc2[nH]c(nc3nc(nc4[nH]c(n1)c1cc(CCCCCC)sc41)-c1cc(CCCCCC)sc1-3)c1cc(CCCCCC)sc21 [compound 6, Tetra(hexylthieno)porphyrazine]	29 (≈ 33100 µM)	–	–	–
CCCCCCc1cc2c(s1)C1=NC2=Nc2c3sc(CCCCCC)cc3c3[n]2[Cu][n]2c(c4cc(CCCCCC)sc4c2=NC2=NC(=N3)c3sc(CCCCCC)cc32)=N1 [compound 7, Copper (II) complex]	11	10	–	–
c1cc2c(s1)-c1nc-2nc2[nH]c(nc3nc(nc4[nH]c(n1)c1ccsc41)-c1ccsc1-3)c1ccsc21 [unsubstituted phthalocyanine derivative, reference compound]	–	–	< 0.02	< 0.02
